Results published in patent publication US8450374B2, “Pan-antagonists for the androgen receptor and androgen receptor mutants associated with anti-androgen withdrawal” (priority 2009, dated 2013).
“Also recorded” adds a separate entry of the source.

Tests used:
mouse prostates = experiment: Prostate apoptosis by TUNEL after IP PAN52; type: in vivo, Male C57Bl/6 mice; conditions: 25 mg/kg/day IP, day 3 and day 5, TUNEL
Protocol: FIG. 17. Quantification of apoptotic cells from prostate tissues where mice were treated short-term by intraperitoneal (IP) injection with PAN52 at 25 mg/kg/day versus vehicle control for either 3 days or 5 days (right). Single 20× magnification fields from each of four lobes of mouse prostate glands were counted in each mouse.

[1] = target: T1, AR ligand-binding domain (LBD) (Homo sapiens, UniProt P10275); experiment: Coactivator peptide recruitment by TR-FRET; type: biochemical; conditions: read after 2 h and 4 h incubation
T1 construct: purchased Invitrogen PV8431
T1 sequence (P10275 669-900 limits assumed): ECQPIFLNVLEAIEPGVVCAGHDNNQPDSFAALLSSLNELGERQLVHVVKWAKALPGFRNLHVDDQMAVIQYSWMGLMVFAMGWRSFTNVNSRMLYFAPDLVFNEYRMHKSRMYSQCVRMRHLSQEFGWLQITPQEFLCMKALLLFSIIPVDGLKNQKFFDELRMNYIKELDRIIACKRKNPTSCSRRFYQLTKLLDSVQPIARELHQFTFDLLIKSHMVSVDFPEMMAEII
Protocol: Briefly, serial dilutions of ligand stocks solutions (in DMSO) were made in TR-FRET coregulator buffer A in a 384 well plate. To each well was added a 4×-stock solution of the AR-LBD followed by a 4× stock solution of fluorescein D-11 peptide and lanthanide-labeled antiGST antibody. The plates were read by time resolved fluorescence after 2 h and 4 h incubation.

Question: Which results are given for `CN(C)CCCOc1cccc(-c2ccccc2S(=O)(=O)CC(C)(O)C(=O)Nc2ccc(C#N)c(C(F)(F)F)c2)c1` (centres unmarked) [PAN52]?
Answer: Apoptosis in prostate compared to control (mouse prostates): increase in apoptosis; also recorded: induced rapid apoptosis; Coactivator peptide (D11, FXXLF) association with AR(LBD) [1]: do not show coactivator association
